In ChEMBL document CHEMBL4229536, “In vitro and in vivo pharmacokinetic and pharmacodynamic study of MBRI-001, a deuterium-substituted plinabulin derivative as a potent anti-cancer agent” (Bioorg Med Chem, 2018):

Experiments:
[1] = Drug excretion in Wistar rat urine at 4 mg/kg, iv measured after 2 hrs; assay type: ADME, organism-based; conditions: read-out: Drug excretion
[2] = system: Rattus norvegicus; assay: Clearance in Wistar rat at 8 mg/kg, iv; assay type: ADME, organism-based; conditions: in vivo
[3] = Drug uptake in Wistar rat brain at 6 mg/kg, iv measured after 12 hrs; assay type: ADME, organism-based; conditions: in vivo
[4] = system: NCI-H460; assay: Antitumor activity against human NCI-H460 cells xenografted in nude mouse assessed as inhibition of tumor weight at 3 mg/kg, iv administered once in every 2 days for 14 consecutive days cotreated with 25 mg/kg gefitinib once daily for 14 consecutive days relative to control; assay type: functional
[5] = Protein binding in Sprague-Dawley rat plasma at 2 uM after 4 hrs by LC-MS/MS analysis; assay type: ADME, cell-free; conditions: read-out: PPB (converted)
[6] = system: NCI-H460; assay: Antitumor activity against human NCI-H460 cells xenografted in nude mouse assessed as inhibition of tumor weight at 9 mg/kg, iv administered once in every 2 days for 14 consecutive days relative to control; assay type: functional; conditions: 48 h
[7] = Half life in rat liver microsomes at 50 uM in presence of NADPH by LC-MS/MS analysis; assay type: ADME, microsome
[8] = Drug uptake in Wistar rat kidney at 6 mg/kg, iv measured after 4 hrs; assay type: ADME, organism-based; conditions: in vivo
[9] = Drug uptake in Wistar rat small intestine at 6 mg/kg, iv measured after 0.5 hrs; assay type: ADME, organism-based; conditions: in vivo
[10] = Drug excretion in Wistar rat urine at 4 mg/kg, iv measured after 48 hrs; assay type: ADME, organism-based; conditions: read-out: Drug excretion
[11] = Drug uptake in Wistar rat pancreas at 6 mg/kg, iv measured after 1 hr; assay type: ADME, organism-based; conditions: in vivo
[12] = Drug uptake in Wistar rat small intestine at 6 mg/kg, iv measured after 8 hrs; assay type: ADME, organism-based; conditions: in vivo
[13] = Protein binding in human plasma at 2 uM after 4 hrs by LC-MS/MS analysis; assay type: ADME, cell-free; conditions: read-out: PPB (converted)
[14] = target: Cytochrome P450 3A4 (Homo sapiens, UniProt P08684); assay: Inhibition of CYP3A4 in human liver microsomes preincubated for 10 mins followed by NADPH addition measured after 10 mins by LC-MS/MS analysis; assay type: ADME
Chain of Cytochrome P450 3A4 (P08684 whole entry): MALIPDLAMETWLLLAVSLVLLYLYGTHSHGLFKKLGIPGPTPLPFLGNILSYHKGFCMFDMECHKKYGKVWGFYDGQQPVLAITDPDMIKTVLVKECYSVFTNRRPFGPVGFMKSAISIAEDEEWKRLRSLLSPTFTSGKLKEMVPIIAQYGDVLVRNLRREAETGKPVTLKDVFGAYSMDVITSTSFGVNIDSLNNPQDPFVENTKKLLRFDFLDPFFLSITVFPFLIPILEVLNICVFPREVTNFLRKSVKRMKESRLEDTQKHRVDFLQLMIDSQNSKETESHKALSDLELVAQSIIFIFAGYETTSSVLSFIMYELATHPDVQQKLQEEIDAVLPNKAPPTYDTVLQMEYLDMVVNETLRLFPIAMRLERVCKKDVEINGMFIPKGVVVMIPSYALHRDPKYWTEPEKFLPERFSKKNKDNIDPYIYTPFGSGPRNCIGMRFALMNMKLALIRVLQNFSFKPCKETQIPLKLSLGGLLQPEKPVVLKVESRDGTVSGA

[15] = system: NCI-H460; assay: Antitumor activity against human NCI-H460 cells xenografted in nude mouse assessed as inhibition of tumor volume at 9 mg/kg, iv administered once in every 2 days for 14 consecutive days relative to control; assay type: functional; conditions: 48 h
[16] = Drug uptake in Wistar rat heart at 6 mg/kg, iv measured after 0.5 hrs; assay type: ADME, organism-based; conditions: in vivo
[17] = target: Cytochrome P450 2C19 (Homo sapiens, UniProt P33261); assay: Inhibition of CYP2C19 in human liver microsomes preincubated for 10 mins followed by NADPH addition measured after 10 mins by LC-MS/MS analysis; assay type: ADME
Chain of Cytochrome P450 2C19 (P33261 whole entry): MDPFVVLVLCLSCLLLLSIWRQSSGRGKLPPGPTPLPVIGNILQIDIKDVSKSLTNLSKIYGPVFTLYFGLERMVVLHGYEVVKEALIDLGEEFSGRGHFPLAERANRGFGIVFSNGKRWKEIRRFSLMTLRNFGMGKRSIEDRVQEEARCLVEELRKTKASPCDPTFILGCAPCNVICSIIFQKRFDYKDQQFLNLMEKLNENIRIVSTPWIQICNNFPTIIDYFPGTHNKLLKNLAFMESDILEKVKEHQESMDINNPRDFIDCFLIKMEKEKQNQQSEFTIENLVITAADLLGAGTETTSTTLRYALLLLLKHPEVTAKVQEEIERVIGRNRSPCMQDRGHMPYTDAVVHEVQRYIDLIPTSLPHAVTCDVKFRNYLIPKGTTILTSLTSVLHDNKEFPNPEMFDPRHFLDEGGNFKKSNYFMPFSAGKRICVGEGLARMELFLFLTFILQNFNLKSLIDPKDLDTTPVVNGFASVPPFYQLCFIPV

[18] = system: Mus musculus; assay: Toxicity in Balb/c mouse assessed as mortality at 10 to 15 mg/kg, iv administered three times in a day every 2 days for 15 consecutive days; assay type: organism-based; conditions: in vivo, 48 h
[19] = system: NCI-H460; assay: Antitumor activity against human NCI-H460 cells xenografted in nude mouse assessed as inhibition of tumor volume at 3 mg/kg, iv administered once in every 2 days for 14 consecutive days relative to control; assay type: functional; conditions: 48 h
[20] = Drug excretion in Wistar rat feces at 4 mg/kg, iv measured after 108 hrs; assay type: ADME, organism-based; conditions: faeces, read-out: Drug excretion
[21] = Drug uptake in Wistar rat lungs at 6 mg/kg, iv measured after 8 hrs; assay type: ADME, organism-based, Lung; conditions: in vivo
[22] = system: Mus musculus; assay: Toxicity in Balb/c mouse assessed as decrease in body weight at 10 to 15 mg/kg, iv administered three times in a day every 2 days for 15 consecutive days; assay type: organism-based; conditions: in vivo, 48 h
[23] = Drug excretion in Wistar rat feces at 4 mg/kg, iv measured after 4 hrs; assay type: ADME, organism-based; conditions: faeces, read-out: Drug excretion
[24] = target: Cytochrome P450 2D6 (Homo sapiens, UniProt P10635); assay: Inhibition of CYP2D6 in human liver microsomes preincubated for 10 mins followed by NADPH addition measured after 10 mins by LC-MS/MS analysis; assay type: ADME
Chain of Cytochrome P450 2D6 (P10635 whole entry): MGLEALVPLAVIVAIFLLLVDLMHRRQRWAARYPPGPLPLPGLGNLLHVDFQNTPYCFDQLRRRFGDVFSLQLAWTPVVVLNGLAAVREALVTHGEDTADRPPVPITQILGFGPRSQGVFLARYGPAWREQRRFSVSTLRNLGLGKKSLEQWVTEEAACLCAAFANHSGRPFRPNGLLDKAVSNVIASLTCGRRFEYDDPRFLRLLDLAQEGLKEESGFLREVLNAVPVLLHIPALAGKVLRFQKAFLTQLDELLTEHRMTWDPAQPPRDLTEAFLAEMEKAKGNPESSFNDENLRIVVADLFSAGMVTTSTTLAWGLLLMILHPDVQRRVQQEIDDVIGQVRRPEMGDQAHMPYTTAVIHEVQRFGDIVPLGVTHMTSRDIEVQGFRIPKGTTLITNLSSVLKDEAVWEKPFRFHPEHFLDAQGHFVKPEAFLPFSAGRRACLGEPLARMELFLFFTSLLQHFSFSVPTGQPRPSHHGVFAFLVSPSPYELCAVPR

[25] = Drug uptake in Wistar rat liver at 6 mg/kg, iv measured after 1 hr; assay type: ADME, organism-based; conditions: in vivo
[26] = Drug excretion in Wistar rat urine at 4 mg/kg, iv measured after 36 hrs; assay type: ADME, organism-based; conditions: read-out: Drug excretion
[27] = Drug uptake in Wistar rat lungs at 6 mg/kg, iv measured after 12 hrs; assay type: ADME, organism-based, Lung; conditions: in vivo
[28] = Drug excretion in Wistar rat feces at 4 mg/kg, iv measured after 12 hrs; assay type: ADME, organism-based; conditions: faeces, read-out: Drug excretion
[29] = Stability in rat plasma at 1 uM after 90 mins by LC-MS/MS analysis; assay type: ADME, cell-free; conditions: read-out: Stability
[30] = Drug uptake in Wistar rat small intestine at 6 mg/kg, iv measured after 12 hrs; assay type: ADME, organism-based; conditions: in vivo
[31] = Drug uptake in Wistar rat liver at 6 mg/kg, iv measured after 8 hrs; assay type: ADME, organism-based; conditions: in vivo
[32] = Drug uptake in Wistar rat liver at 6 mg/kg, iv measured after 12 hrs; assay type: ADME, organism-based; conditions: in vivo
[33] = Stability in rat liver microsomes at 50 uM after 10 mins in presence of NADPH by LC-MS/MS analysis; assay type: ADME, microsome; conditions: liver microsomes, read-out: Stability
[34] = Clearance in Wistar rat at 4 mg/kg, iv; assay type: ADME, organism-based; conditions: in vivo
[35] = system: Mus musculus; assay: Toxicity in nude mouse xenografted with human NCI-H460 cells assessed as death at 3 to 9 mg/kg, iv administered once in every 2 days for 14 consecutive days; assay type: organism-based; conditions: in vivo, 48 h
[36] = Half life in Wistar rat at 4 mg/kg, iv; assay type: ADME, organism-based; conditions: in vivo
[37] = Drug uptake in Wistar rat heart at 6 mg/kg, iv measured after 12 hrs; assay type: ADME, organism-based; conditions: in vivo
[38] = Stability in rat plasma at 1 uM after 5 mins by LC-MS/MS analysis; assay type: ADME, cell-free; conditions: read-out: Stability
[39] = system: NCI-H460; assay: Antitumor activity against human NCI-H460 cells xenografted in nude mouse assessed as inhibition of tumor weight at 3 mg/kg, iv administered once in every 2 days for 14 consecutive days relative to control; assay type: functional; conditions: 48 h
[40] = Cmax in Wistar rat at 8 mg/kg, iv; assay type: ADME, organism-based; set-up: dose 8 mg/kg, route intravenous; conditions: in vivo
[41] = system: Rattus norvegicus; assay: AUC (0 to infinity) in Wistar rat at 8 mg/kg, iv; assay type: ADME, organism-based; set-up: dose 8 mg/kg, route intravenous, time infinity; conditions: in vivo
[42] = Drug excretion in Wistar rat feces at 4 mg/kg, iv measured after 8 hrs; assay type: ADME, organism-based; conditions: faeces, read-out: Drug excretion
[43] = Stability in rat liver microsomes at 50 uM after 120 mins in presence of NADPH by LC-MS/MS analysis; assay type: ADME, microsome; conditions: read-out: Stability
[44] = system: Mus musculus; assay: Toxicity in nude mouse xenografted with human NCI-H460 cells assessed as body weight at 3 mg/kg, iv administered once in every 2 days for 14 consecutive days cotreated with 25 mg/kg gefitinib once daily for 14 consecutive days (reference value: 20.6 +/- 1.5 g); assay type: organism-based; conditions: in vivo, 48 h
[45] = Drug uptake in Wistar rat kidney at 6 mg/kg, iv measured after 1 hr; assay type: ADME, organism-based; conditions: in vivo
[46] = Drug uptake in Wistar rat pancreas at 6 mg/kg, iv measured after 0.5 hrs; assay type: ADME, organism-based; conditions: in vivo
[47] = system: NCI-H460; assay: Antitumor activity against human NCI-H460 cells xenografted in nude mouse assessed as inhibition of tumor volume at 6 mg/kg, iv administered once in every 2 days for 14 consecutive days relative to control; assay type: functional; conditions: 48 h
[48] = Drug uptake in Wistar rat brain at 6 mg/kg, iv measured after 0.5 hrs; assay type: ADME, organism-based; conditions: in vivo
[49] = Drug uptake in Wistar rat brain at 6 mg/kg, iv measured after 4 hrs; assay type: ADME, organism-based; conditions: in vivo

With `[2H]/C(c1nc[nH]c1C(C)(C)C)=c1/[nH]c(=O)/c(=C/c2ccccc2)[nH]c1=O` as the compound, how does the dose excreted at 2 h [1] read?
The dose excreted at 2 h was 0.05%.

And the CL [2]?
Its CL is 64.617 mL/min/kg.

What about the Drug uptake [3] of the same compound?
Its Drug uptake is 83 ng/mL/g.

And the “inhibition (INH)” value [4]?
The value was 53.3%.

What about the fraction unbound at 4 h, 2 µM [5] of the same compound?
The fraction unbound at 4 h, 2 µM was 0.042.

And the inhibition in vivo at 9 mg/kg [6]?
Its inhibition in vivo at 9 mg/kg is 58.7%.

And the t1/2 [7]?
The t1/2 was 1.415 h.

What about the Drug uptake [8] of the same compound?
The Drug uptake was 3570.8 ng/mL/g.

What about the Drug uptake [9] of the same compound?
Its Drug uptake is 1799.2 ng/mL/g.

What about the dose excreted at 48 h [10] of the same compound?
The dose excreted at 48 h was 0.26%.

What about the Drug uptake [11] of the same compound?
Its Drug uptake is 4538.9 ng/mL/g.

And the Drug uptake [12]?
The Drug uptake was 160 ng/mL/g.

What about the fraction unbound at 4 h, 2 µM [13] of the same compound?
Its fraction unbound at 4 h, 2 µM is 0.021.

And the IC50 [14]?
Its IC50 is greater than 50 µM.

And the inhibition in vivo at 9 mg/kg [15]?
Its inhibition in vivo at 9 mg/kg is 68.2%.

What about the Drug uptake [16] of the same compound?
Its Drug uptake is 2189.8 ng/mL/g.

What about the IC50 [17] of the same compound?
Its IC50 is 3.81 µM.

What about the Activity [18] of the same compound?
Its Activity is “Non-Toxic”.

What about the inhibition in vivo at 3 mg/kg [19] of the same compound?
The inhibition in vivo at 3 mg/kg was 46.9%.

And the dose excreted at 108 h [20]?
The dose excreted at 108 h was 6.83%.

What about the Drug uptake [21] of the same compound?
The Drug uptake was 41048.8 ng/mL/g.

And the Activity [22]?
Its Activity is “Non-Toxic”.

What about the dose excreted at 4 h [23] of the same compound?
Its dose excreted at 4 h is 0.11%.

What about the IC50 [24] of the same compound?
The IC50 was 18.4 µM.

What about the Drug uptake [25] of the same compound?
The Drug uptake was 8791.2 ng/mL/g.

And the dose excreted at 36 h [26]?
Its dose excreted at 36 h is 0.23%.

And the Drug uptake [27]?
Its Drug uptake is 2023.8 ng/mL/g.

What about the dose excreted at 12 h [28] of the same compound?
The dose excreted at 12 h was 0.12%.

And the remaining at 1.5 h, 1 µM [29]?
Its remaining at 1.5 h, 1 µM is 99.3%.

And the Drug uptake [30]?
Its Drug uptake is 36.1 ng/mL/g.

And the Drug uptake [31]?
The Drug uptake was 1684.3 ng/mL/g.

What about the Drug uptake [32] of the same compound?
Its Drug uptake is 431.7 ng/mL/g.

And the remaining at 10 min, 50 µM [33]?
The remaining at 10 min, 50 µM was 80.6%.

And the clearance [34]?
The clearance was 71.4 mL/min/kg.

What about the Activity [35] of the same compound?
The Activity was “Non-Toxic”.

What about the half-life [36] of the same compound?
The half-life was 2.27 h.

What about the Drug uptake [37] of the same compound?
Its Drug uptake is 54.7 ng/mL/g.

And the remaining at 5 min, 1 µM [38]?
Its remaining at 5 min, 1 µM is 93.9%.

And the inhibition in vivo at 3 mg/kg [39]?
The inhibition in vivo at 3 mg/kg was 43%.

And the Cmax [40]?
The Cmax was 20100 ng/mL.

What about the AUC [41] of the same compound?
Its AUC is 5808.24 ng·h/mL.

What about the dose excreted at 8 h [42] of the same compound?
The dose excreted at 8 h was 0.11%.

And the remaining at 2 h, 50 µM [43]?
The remaining at 2 h, 50 µM was 31.1%.

What about the Activity [44] of the same compound?
The Activity was 19.8 g.

And the Drug uptake [45]?
The Drug uptake was 6768.5 ng/mL/g.

And the Drug uptake [46]?
Its Drug uptake is 7096.2 ng/mL/g.

What about the inhibition in vivo at 6 mg/kg [47] of the same compound?
Its inhibition in vivo at 6 mg/kg is 56.9%.

What about the Drug uptake [48] of the same compound?
The Drug uptake was 1756.2 ng/mL/g.

And the Drug uptake [49]?
The Drug uptake was 166.5 ng/mL/g.
